Here are results for one molecule from publication PMC11834572, “MoxR effects as an ATPase on anti-stress and pathogenicity of Riemerella anatipestifer” (Veterinary Research, 2025).

In this assay the target is T1, His6-MoxR (Riemerella anatipestifer, UniProt E4TDR4).
T1 construct: gene RA0C_2065
The conditions noted are these: 37 °C, 1 h; ATP or His6-MoxR concentration varied.

T1 sequence (E4TDR4 entry or part of it): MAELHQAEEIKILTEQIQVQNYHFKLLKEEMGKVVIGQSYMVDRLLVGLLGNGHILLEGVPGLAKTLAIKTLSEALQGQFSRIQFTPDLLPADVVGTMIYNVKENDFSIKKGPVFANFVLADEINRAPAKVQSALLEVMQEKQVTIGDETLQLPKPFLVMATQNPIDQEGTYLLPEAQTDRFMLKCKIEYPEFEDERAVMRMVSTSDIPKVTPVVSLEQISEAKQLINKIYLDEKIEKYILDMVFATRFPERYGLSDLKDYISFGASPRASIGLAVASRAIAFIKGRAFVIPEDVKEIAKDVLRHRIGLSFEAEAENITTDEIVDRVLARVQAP

On to `Nc1ncnc2c1ncn2[C@@H]1O[C@H](COP(=O)(O)OP(=O)(O)OP(=O)(O)O)[C@@H](O)[C@H]1O` [ATP], for which the “phosphate release, molybdenum blue, absorbance at 660 nm” value was “concentration of phosphate groups in each reaction system increased with higher amounts of His6-MoxR and ATP”.
